# From patent publication EP3446753B1, “NEW THERAPEUTIC USES OF PEPTIDES OF THE ADIPOKINETIC HORMONE FAMILY” (Mutlu, Oguz, priority 2017, dated 2019)
# Structures can show the parent of a compound that is named as a salt. Square brackets hold non-standard residues; d marks the D form. Peptide text beside a SMILES is read from it. pGlu = O=C1CC[C@@H](C(=O)O)N1
# How the values were obtained:
# [1] = system: Long Evans rats; assay: Active Allothetic Place Avoidance test (AAPA), MK-801 model; format: in vivo; conditions: for MK-801 (0.15 mg/kg) induced cognitive memory impairment effects: peptide 2 mg/kg administered subchronically + MK-801 0.15 mg/kg, summary statement; for reversal of MK-801 increased locomotion (total distance (m) moved) / reversal of MK-801 decreased maximum time of avoidance (s) / reversal of MK-801 increased number of entries to the shock sector / reversal of MK-801 increased number of shocks: peptide 2 mg/kg i.p. + MK-801 0.15 mg/kg i.p., compared to MK-801 alone; for reversal of MK-801 increased locomotion (total distance (m) moved): 4 days (subchronically)
# Experimental: 3-4 month-old male rats of the Long Evans strain were used for the Active Allothetic Place Avoidance test and were obtained from the accredited breeding colony of the Institute of Physiology, Academy of Science, Prague. Rats were acclimatised for 7-10 days prior to testing, during which they were weighed twice and handled four times. Rats were housed in pairs in transparent plastic cages (30×30×40 cm) in an air-conditioned animal room with a constant temperature of 21 °C and with 12/12 light/dark cycle (lights on at 7:00). All animals received food and water ad libitum. All experiments respected the Guidelines of the European Union (86/609/EU) and the National Committee for the Care and Use of Laboratory Animals (Czech Republic) and were approved by the committee under the number: MEYSCR-27527/2012-31.
# In the Active Allothetic Place Avoidance test, Long Evans rats were treated with Ani-AKH (1 and 2 mg/kg) (n=8), Lia-AKH (1 and 2 mg/kg) (n=8), Pht-HrTH (1 and 2 mg/kg) (n=8), MK-801 (0.15 mg/kg) (n=8), Ani-AKH (2 mg/kg)+MK-801 (0.15 mg/kg) (n=8), Lia-AKH (2 mg/kg)+MK-801 (0.15 mg/kg) (n=8), Pht-HrTH (2 mg/kg)+MK-801 (0.15 mg/kg) (n=8) or vehicle (control group=saline with 15% DMSO) (n= 8) for 4 days (subchronically). Ani-AKH, Lia-AKH and Pht-HrTH were administered intraperitoneally (i.p.) 60 min. before the Active Allothetic Place Avoidance test while MK-801 was administered (i.p.) 40 min. before the test in a volume of 2ml/kg body weight. Separate group of animals were used in each test. The doses of the drugs were chosen according to the previous studies (Mutlu et al. 2016).
# (+)-MK-801 maleate ((5S,10R)-(+)-5-methyl-10,11-dihydro-5H-dibenzo(a, d)-cyclo-hepten-5,10-imine maleate) was obtained from Tocris Bioscience, United Kingdom. Anax imperator AKH (Ani-AKH), Libellula auripennis AKH (Lia-AKH) and Phormia-Terra hypertrehalosemic hormone (Pht-HrTH) were purchased from TRC (Toronto/Canada). MK-801 was dissolved in saline while AKH was dissolved in saline mixed with 15% DMSO. Saline with 15% DMSO was used as control group.
# The Active Allothetic Place Avoidance Test is a spatial memory test that can determine the ability of animals to organize their behavior efficiently in both normal and pathological conditions. Successful performance in the test requires the rat to solve a conflict between two discordant subsets of spatial stimuli (extramaze and intramaze cues). It is believed that successful performance in the Active Allothetic Place Avoidance Test, where the rat has to differentiate between relevant and irrelevant stimuli, depends on the mode of information processing disturbed in schizophrenic patients (Bubenikova-Valesova et al., 2008b). The Active Allothetic Place Avoidance arena was described in detail in previous papers (Cimadevilla et al., 2001). Briefly, it consisted of a smooth metallic circular arena (82 cm in diameter), enclosed by a 30 cm high transparent Plexiglas wall. The arena was elevated 1 m above the floor of 4×5 m experimental room containing an abundance of extramaze landmarks. The arena together with the wall was rotated (1 rpm) by an electric motor placed underneath the arena disc. At the beginning of each training session, a rat was placed in the arena at a location opposite an imperceptible 60° to-be- avoided sector (shock sector), which was defined by the computer- based tracking system (iTrack, Biosignal Group, USA), located in an adjacent room. The arena rotation started immediately after placement of the rat. The location of the shock sector could be determined solely by its spatial relation to the distal orienting cues located in the room. Rats were wearing a light latex harness, to which an infrared light-emitting diode (LED) was attached between the rat's shoulders. Whenever the rat entered the to-be-avoided sector for more than 500 ms (millisecond), the tracking system delivered a mild, constant-current shock (50 Hz, 0.5 s, 0.4-0.7 mA) and counted an entrance. […]
# [2] = system: Emperor dragonfly, Anax imperator; conditions: low concentrations of the synthetic peptide injected into the Emperor dragonfly; cited from earlier work
# [3] = MK-801 0.15 mg/kg i.p. alone, 4 days, compared to control
Structure (SMILES),MK-801 (0.15 mg/kg) induced cognitive memory impairment effects [1],reversal of MK-801 increased locomotion (total distance (m) moved) [1],reversal of MK-801 decreased maximum time of avoidance (s) ([1]; 4 days),reversal of MK-801 increased number of entries to the shock sector ([1]; 4 days),reversal of MK-801 increased number of shocks ([1]; 4 days),haemolymph lipid concentration [2],"locomotion (total distance (m) moved) [1, 3]","maximum time of avoidance (s) [1, 3]","number of entries to the shock sector [1, 3]","number of shocks [1, 3]"
"CC(C)[C@H](NC(=O)[C@@H]1CCC(=O)N1)C(=O)N[C@@H](CC(N)=O)C(=O)N[C@@H](Cc1ccccc1)C(=O)N[C@@H](CO)C(=O)N1CCC[C@H]1C(=O)N[C@@H](CO)C(=O)N[C@@H](Cc1c[nH]c2ccccc12)C(N)=O [Ani-AKH, 5-oxo-L-prolyl-L-valyl-L-asparaginyl-L-phenylalanyl-L-seryl-L-prolyl-L-seryl-L-Tryptophanamide] ([pGlu]VNFSPSW-NH2)",reverse,significantly reversed,significantly reversed this effect,significantly reversed this effect,significantly reversed this effect,increased the haemolymph lipid concentration,–,–,–,–
"CC(C)[C@H](NC(=O)[C@@H]1CCC(=O)N1)C(=O)N[C@@H](CC(N)=O)C(=O)N[C@@H](Cc1ccccc1)C(=O)N[C@H](C(=O)N1CCC[C@H]1C(=O)N[C@@H](CO)C(=O)N[C@@H](Cc1c[nH]c2ccccc12)C(N)=O)[C@@H](C)O [Lia-AKH, 5-oxo-L-prolyl-L-valyl-L-asparaginyl-L-phenylalanyl-L-threonyl-L-prolyl-L-seryl-L-Tryptophanamide] ([pGlu]VNFTPSW-NH2)",reverse,partial effect,significantly reversed this effect,significantly reversed this effect,significantly reversed this effect,–,–,–,–,–
"C[C@]12N[C@H](Cc3ccccc31)c1ccccc12 [MK-801, (5S,10R)-(+)-5-methyl-10,11-dihydro-5H-dibenzo(a, d)-cyclo-hepten-5,10-imine maleate]",–,–,–,–,–,–,significantly increased locomotion,significantly decreased maximum time of avoidance,significantly increased number of entries,significantly increased number of shocks
"CC(C)C[C@H](NC(=O)[C@@H]1CCC(=O)N1)C(=O)N[C@H](C(=O)N[C@@H](Cc1ccccc1)C(=O)N[C@@H](CO)C(=O)N1CCC[C@H]1C(=O)N[C@@H](CC(=O)O)C(=O)N[C@@H](Cc1c[nH]c2ccccc12)C(N)=O)[C@@H](C)O [Pht-HrTH, 5-oxo-L-prolyl-L-leucyl-L-threonyl-L-phenylalanyl-L-seryl-L-prolyl-L-alfa-aspartyl-L-Tryptophanamide] ([pGlu]LTFSPDW-NH2)",reverse,no reversing effect,significantly reversed this effect,significantly reversed this effect,significantly reversed this effect,–,–,–,–,–
